From US20200155555A1, “VITAMIN RECEPTOR DRUG DELIVERY CONJUGATES FOR TREATING INFLAMMATION” (Endocyte, Inc., priority 2007, published 2020)

Experiments:
[1] = system: Proliferating Cell Nuclear Antigen (PCNA) in RAW264.7 cells; test: Western blot for proliferating cell nuclear antigen; format: cell-based, murine; details: 1-1000 nM; EC0565 2 h treatment and 48 h chase, everolimus 48 h
[2] = system: rats with adjuvant-induced arthritis (AIA); test: Adjuvant-induced arthritis (AIA) model
Experimental: Female Lewis rats were fed a folate-deficient diet (Harlan Teklad, Indianapolis, Ind.) for 9-10 days prior to arthritis induction. The adjuvant-induced arthritis (AIA) was induced by intradermal inoculation (at the base of tail) of 0.5 mg of heat-killed Mycobacteria butyricum (BD Diagnostic Systems, Sparks, Md.) in 100 μL light mineral oil (Sigma). Ten days after arthritis induction, paw edema in rats was assessed using a modified arthritis scoring system: 0=no arthritis; 1=swelling in one type of joint; 2=swelling in two types of joint; 3=swelling in three types of joint; 4=swelling of the entire paw. A total score for each rat is calculated by summarizing the scores for each of the four paws, giving a maximum score of 16 for each rat. On Day 10 post arthritis induction, rats with a total arthritis score of ≥2 were removed from the study and the remaining rats were distributed evenly across the control and treatment groups (n=5 for all groups except that n=2-3 for healthy controls). All treatments started on Day 10 unless mentioned otherwise. […]
Rats with adjuvant arthritis were treated subcutaneously with EC0932 (250 nmol/kg) in the absence or presence of 500-fold excess of EC0923 (125 μmol/kg) on days 10, 13, 17, and 20 post arthritis induction. The animals in the healthy and arthritis control groups were left untreated. The arthritis scores and animal body weights were recorded three times a week (see FIG. 19A, B). At the completion of study (day 24), the rats were euthanized by CO2 asphyxiation and processed for paw and spleen weights (see FIG. 20A, B).
The rat adjuvant induced arthritis (AIA) model resembles the characteristics of RA in humans and has been widely used to study the impact of novel anti-inflammatory agents.

DHFR = molecular target: T1, DHFR (Mus musculus, UniProt P00375); test: DHFR activity in lysate of treated RAW264.7 cells; format: cell-based, murine; details: excess folic acid alone, 10 μM
T1 construct: endogenous in cells; host or cells: RAW264.7 cells
T1 sequence (P00375 1-187): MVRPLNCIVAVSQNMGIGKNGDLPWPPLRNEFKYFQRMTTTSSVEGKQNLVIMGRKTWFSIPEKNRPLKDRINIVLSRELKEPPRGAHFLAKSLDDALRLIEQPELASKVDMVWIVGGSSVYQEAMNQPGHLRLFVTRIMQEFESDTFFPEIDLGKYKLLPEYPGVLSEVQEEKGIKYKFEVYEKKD
Experimental: RAW264.7 cells were treated with vehicle (medium), EC0746 (100 nM) without or with 100-fold excess free folate, aminopterin (AMT, 100 nM), methotrexate (MTX, 100 nM), or excess free folate alone (10 μM). After 1 h incubation, the drug-containing media were replaced with fresh medium and the cells were allowed to incubate further for 24 h. At the end of incubation, the cells were lysed and the DHFR activity in cell lysates was measured using a commercial DHFR assay kit (Sigma-Aldrich, Saint Louis, Mo.).

[3] = Plasma pharmacokinetics after a single i.v. or s.c. dose of EC0565; details: rats
Experimental: The bioavailability of EC0565 after subcutaneous injection was measured. Female Lewis rats with rounded tip jugular vein catheters (Harlan) were fed regular rodent diet. The treated animals were given a single intravenous or subcutaneous dose of EC0565 at 2 μmol/kg. […] For subcutaneous administration (FIG. 52B), whole blood samples (300 μl) were collected from the animals at 1 min, 10 min, 30 min, 1 h, 2 h, 3 h, 4 h, 8 h, and 12 h post injection. The blood samples were placed into anti-coagulant tubes containing 1.7 mg/mL of K3-EDTA and 0.35 mg/mL of N-maleoyl-beta-alanine (0.35 mg/mL). Plasma samples were obtained by centrifugation for 3 min at ˜2,000 g and stored at −80° C. The amount of EC0565 and its released base drug (everolimus) were determined by HPLC using the EC0565 injection solution as the standard.

[4] = oral everolimus 500 nmol/kg tiw

SMILES: CO[C@H]1C[C@@H]2CC[C@@H](C)[C@@](O)(O2)C(=O)C(=O)N2CCCC[C@H]2C(=O)O[C@H]([C@H](C)C[C@@H]2CC[C@@H](OCCO)[C@H](OC)C2)CC(=O)[C@H](C)/C=C(\C)[C@@H](O)[C@@H](OC)C(=O)[C@H](C)C[C@H](C)/C=C/C=C/C=C/1C [everolimus]
- effect on PCNA in synchronized RAW264.7 cells [1]: inhibited PCNA activities
- spleen weight compared to arthritic controls ([2]; 500 nmol/kg 3 times a week, EC0565 sc, everolimus oral): significantly decreased spleen weight compared to arthritic controls
- decrease in dorsal to ventral paw thickness [2, 4]: 44%
- decrease in summed histological score [2, 4]: 52%
- reductions in all scored histology parameters vs untreated controls [2, 4]: 44-61%

SMILES: Nc1nc2ncc(CNc3ccc(C(=O)N[C@@H](CCC(=O)O)C(=O)O)cc3)nc2c(=O)[nH]1 [folic acid]
- effect on DHFR activity in RAW264.7 cells (DHFR): did not have any impact

SMILES: CO[C@H]1C[C@@H]2CC[C@@H](C)[C@@](O)(O2)C(=O)C(=O)N2CCCC[C@H]2C(=O)O[C@H]([C@H](C)C[C@@H]2CC[C@@H](OCCOC(=O)OCCSSC[C@H](NC(=O)[C@H](CCC(=O)NC[C@H](O)[C@@H](O)[C@H](O)[C@H](O)CO)NC(=O)[C@H](CCC(=O)O)NC(=O)[C@H](CCC(=O)NC[C@H](O)[C@@H](O)[C@H](O)[C@H](O)CO)NC(=O)[C@H](CCC(=O)O)NC(=O)[C@H](CCC(=O)NC[C@H](O)[C@@H](O)[C@H](O)[C@H](O)CO)NC(=O)CC[C@H](NC(=O)c3ccc(NCc4cnc5nc(N)[nH]c(=O)c5n4)cc3)C(=O)O)C(=O)O)[C@H](OC)C2)CC(=O)[C@H](C)/C=C(\C)[C@@H](O)[C@@H](OC)C(=O)[C@H](C)C[C@H](C)/C=C/C=C/C=C/1C [EC0565, Everolimus-EC0488 Conjugate]
- free drug (everolimus) exposure/release in plasma, based on AUC ([3]; single intravenous dose of EC0565, 2 μmol/kg): approximately 18%
- free drug (everolimus) exposure/release in plasma, based on AUC ([3]; single subcutaneous dose of EC0565, 2 μmol/kg): ~17%
